In US12006330B2, “Substituted macrocyclic compounds and related methods of treatment” (Alkermes, Inc., priority 2020, dated 2024):

Tests used:
[1] = biological target: T1, human orexin-2 receptor (OX2R) (Homo sapiens, UniProt O43614); experiment: Human OX2R IP1 assay; format: cell-based; conditions: T-Rex CHO cells stably overexpressing human OX2R; IP1 accumulation; 1 hr at 37 degrees C; mean EC50
T1 construct: expressed in transfected cells
T1 sequence (O43614 1-444): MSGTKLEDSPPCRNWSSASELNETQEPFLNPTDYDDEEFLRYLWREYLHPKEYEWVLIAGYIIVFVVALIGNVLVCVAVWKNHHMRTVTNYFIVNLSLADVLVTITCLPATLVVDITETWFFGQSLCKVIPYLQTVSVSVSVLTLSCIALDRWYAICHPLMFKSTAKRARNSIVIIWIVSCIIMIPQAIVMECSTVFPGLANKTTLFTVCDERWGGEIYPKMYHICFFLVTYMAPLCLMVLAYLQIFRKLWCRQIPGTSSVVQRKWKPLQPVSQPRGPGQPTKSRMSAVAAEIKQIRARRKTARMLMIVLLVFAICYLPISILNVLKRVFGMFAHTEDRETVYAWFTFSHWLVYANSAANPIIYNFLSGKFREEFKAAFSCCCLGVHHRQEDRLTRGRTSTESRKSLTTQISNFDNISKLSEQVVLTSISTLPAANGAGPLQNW
Method in brief: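 T-Rex CHO cells stably expressing human OX2R, doxycycline-induced (1 μg/mL) overnight, treated with compounds 1 h at 37 °C in pH 7.4 buffer with 50 mM LiCl. IP1 accumulation read by HTRF competitive immunoassay after 1 h at room temperature; agonist EC50 reported as mean ± S.E.M.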

MDCK-MDR1 cells = experiment: MDCK-MDR1 permeability assay; format: in vitro ADME; conditions: MDCK-MDR1 cells; for Efflux ratio (ER): Papp B→A divided by Papp A→B, 3 μM, 2 hours; for Papp A → B (10^−6 cm/s): test compound 3 μM, 2 hours at 37 degrees C, apical to basolateral
Method in brief: (§1)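 Receiver and donor compartments were analysed by LC-MS/MS after a 2 h incubation at 37 °C of 3 μM compound in HBSS on MDCK-MDR1 monolayers, run in both directions with Lucifer Yellow (100 μM) as integrity marker. Apparent permeability came from translocation rate, insert area and initial concentration; B→A/A→B Papp gave the efflux ratio, alongside percent recovery.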

human hepatocytes = experiment: Hepatocytes stability assay (human hepatocytes); format: in vitro ADME; conditions: for CLint (μL/min/million cells): cryopreserved human hepatocytes (pool of 50 mixed gender), 1 μM test compound, 1×10^6 cell/mL, 37 degrees C; for Extraction Ratio (ER): human hepatocytes, scaled hepatic clearance divided by liver blood flow (well-stirred model, fu assumed unity)
Method in brief: (§2)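 Compound at 1 μM (0.1% DMSO) was incubated with cryopreserved pooled human hepatocytes, 1×10^6 cells/mL in Krebs-Henseleit buffer, at 37 °C, sampled up to 240 min. Parent depletion by LC-MS/MS; half-life from first-order decay gave CLint, scaled to hepatic clearance by well-stirred model (fu assumed 1) and extraction ratio.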

MDR1 = experiment: MDCK-MDR1 permeability assay; format: in vitro ADME; conditions: dog, MDCK-MDR1, MDCK-MDR1 cells; for efflux ratio at 2 h, 3 μM: Papp B→A divided by Papp A→B, read-out: Efflux ratio (ER); for Papp A→B at 2 h, 3 μM: test compound 3 μM, 2 hours at 37 degrees C, apical to basolateral
Method in brief: as §1

[2] = Hepatocytes stability assay (human hepatocytes); format: in vitro ADME; conditions: both sexes, human, cryopreserved hepatocytes, cryopreserved human hepatocytes (pool of 50 mixed gender); 1 μM test compound; 1×10^6 cell/mL; 37 degrees C; read-out: CLint (μL/min/million cells)
Method in brief: as §2

Sprague-Dawley rats = experiment: Assessment of wake promotion in Sprague-Dawley rats (EEG/EMG); format: in vivo, rat; conditions: male Sprague-Dawley rats; PO; 3 mpk; dosed at ZT5; 6-hour post-dose period
Method: Wake promotion was assessed using electroencephalography (EEG) and electromyography (EMG) in adult male Sprague-Dawley rats. All rats (Charles River Laboratories, Raleigh, NC, USA) were intraperitoneally implanted with telemetry devices (F50-EEE, Data Sciences International Inc., MN, USA) under isoflurane anesthesia. For EEG, stainless steel screws were implanted over frontal cortex and parietal cortex, and reference screws were placed over cerebellum. Additionally, an electrode was placed in neck muscle for EMG. Rats were given carprofen post-surgery and underwent a 7 to 10-day recovery period. Rats habituated to the experimental room for 7 days and were maintained on a 12-hour light-dark cycle.
EEG and EMG data were recorded using the DSI telemetry system and Ponemah software (Data Sciences International Inc., MN, USA). Sleep-wake stages were scored both manually and with Somnivore, a supervised machine learning software platform, in 10 second epochs. Records were visually inspected as needed post-processing.
All test compounds were dissolved in 5% DMSO and suspended in 95% saline with 0.5% methylcellulose and 0.5% tween. […] Unless otherwise indicated, all compounds were dosed orally. Recordings for each rat were initiated immediately after dosing and lasted for 6 hours post-dose.
Two key endpoints include wakefulness time and cortical activation time. Wakefulness time is derived from the sleep-wake stage analysis. Cortical activation time is based on the duration in which frontal gamma oscillatory activity (30-100 Hz), a key feature of wakefulness, was elevated relative to a pre-treatment baseline. Mean cortical activation time was computed relative to vehicle treatment for the 6-hour post-dose period.

| EC50 [1] | Efflux ratio (ER) (MDCK-MDR1 cells) | Papp A → B (10^−6 cm/s) (MDCK-MDR1 cells) | CLint (μL/min/million cells) (human hepatocytes) | Extraction Ratio (ER) (human hepatocytes) | efflux ratio at 2 h, 3 μM (MDR1) | Papp A→B at 2 h, 3 μM (MDR1) | hepatocyte CLint at 1 μM [2] | Structure (SMILES) | Mean cortical activation time (% vehicle treatment) (Sprague-Dawley rats) |
| --- | --- | --- | --- | --- | --- | --- | --- | --- | --- |
| < 10 nM | 49 | <0.091 10^−6 cm/s | <1.9 μL/min/million cells | <0.22 |  |  |  | Cc1ncnc2c1[C@H]1CC[C@H](CC1)OC[C@H]1[C@@H](NS(C)(=O)=O)CCCN1C(=O)CO2 (stereo in doubt) [Compound 72] |  |
|  |  |  |  | 0.58 | > 100 | 0.38 ×10⁻⁶ cm/s | 9.4 µL/min/1e6 cells | Cc1ccnc2c1C1CCC(CC1)OC[C@H]1[C@@H](NS(=O)(=O)C(C)C)CCCN1C(=O)CO2 (stereo in doubt) [Compound 10] | 82.61 % vehicle treatment |
|  |  |  |  | 0.53 | 40 | 0.84 ×10⁻⁶ cm/s | 7.5 µL/min/1e6 cells | Cc1ccc2c(c1)C1CCC(CC1)OC[C@H]1[C@@H](NS(C)(=O)=O)CCCN1C(=O)CO2 (stereo in doubt) [Compound 17] | 212.31 % vehicle treatment |
|  |  |  |  | 0.82 | 6.7 | 1.6 ×10⁻⁶ cm/s | 31 µL/min/1e6 cells | O=C1COc2ccccc2C2CCC(CC2)OC[C@H]2[C@@H](NS(=O)(=O)C3CC3)CCCN12 (stereo in doubt) [Compound 1] | 160.00 % vehicle treatment |
| < 10 nM | 48 | 0.62 10^−6 cm/s | 11 μL/min/million cells | 0.61 |  |  |  | Cc1ccnc2c1[C@H]1CC[C@H](CC1)OCC1[C@@H](NS(=O)(=O)C3CCOC3)CCCN1C(=O)CO2 (stereo in doubt) [Compound 90] |  |
|  |  |  |  | 0.74 | 14 | 3.9 ×10⁻⁶ cm/s | 19 µL/min/1e6 cells | CC(C)S(=O)(=O)N[C@H]1CCN2C(=O)COc3ncccc3[C@H]3CC[C@H](CC3)OCC12 (stereo in doubt) [Compound 101] | 109.66 % vehicle treatment |
|  |  |  |  | 0.43 | 44 | 0.42 ×10⁻⁶ cm/s | 5.2 µL/min/1e6 cells | O=C1COc2ncncc2[C@H]2CC[C@H](CC2)OCC2[C@@H](NS(=O)(=O)C3CC3)CCCN12 (stereo in doubt) [Compound 97] | 79.25 % vehicle treatment |
|  |  |  |  | 0.38 | 52 | 1.6 ×10⁻⁶ cm/s | 4.2 µL/min/1e6 cells | O=C1COc2ccccc2C2CCC(CC2)OC[C@H]2[C@@H](NS(=O)(=O)C(F)(F)F)CCCN12 (stereo in doubt) [Compound 11] | 411.43 % vehicle treatment |
|  |  |  |  | 0.78 | 18 | 3.4 ×10⁻⁶ cm/s | 24 µL/min/1e6 cells | Cc1ccnc2c1[C@H]1CC[C@H](CC1)OCC1[C@@H](NS(=O)(=O)C3CC3)CCN1C(=O)CO2 (stereo in doubt) [Compound 92] | 97.94 % vehicle treatment |
|  |  |  |  | 0.25 | 9.2 | 0.53 ×10⁻⁶ cm/s | 2.3 µL/min/1e6 cells | CS(=O)(=O)N[C@H]1CCCN2C(=O)COc3ccc(O)cc3[C@H]3CC[C@H](CC3)OCC12 (stereo in doubt) [Compound 96] | 74.48 % vehicle treatment |
| < 10 nM | >100 | 0.23 10^−6 cm/s | 21 μL/min/million cells | 0.76 |  |  |  | O=C1COc2ccccc2[C@H]2CC[C@H](CC2)OCC2[C@@H](NS(=O)(=O)C3CCOC3)CCCN12 (stereo in doubt) [Compound 73] |  |
|  |  |  |  | 0.69 | 100 | 0.34 ×10⁻⁶ cm/s | 15 µL/min/1e6 cells | CC(C)S(=O)(=O)N[C@H]1CCCN2C(=O)COc3ncccc3C3CCC(CC3)OC[C@@H]12 (stereo in doubt) [Compound 15] | 107.59 % vehicle treatment |
|  |  |  |  | <0.22 | 88 | 0.22 ×10⁻⁶ cm/s | < 1.9 µL/min/1e6 cells | CC(C)S(=O)(=O)N[C@H]1CCCN2C(=O)COc3nccnc3[C@H]3CC[C@H](CC3)OCC12 (stereo in doubt) [Compound 66] | 141.30 % vehicle treatment |
|  |  |  |  | 0.59 | 74 | 0.49 ×10⁻⁶ cm/s | 9.7 µL/min/1e6 cells | Cc1ccnc2c1C1CCC(CC1)OC[C@H]1[C@@H](NS(C)(=O)=O)CCCN1C(=O)CO2 (stereo in doubt) [Compound 12] | 108.70 % vehicle treatment |
